From patent US9856511B2, “Protease deubiquitinating inhibitor screening” (priority 2011, dated 2018)

Assays:
C1498 AML cells = test: C1498 AML model in C57BL/6J mice, histopathology of liver and ovary; assay type: in vivo; conditions: 5 mg/kg i.p. for 7 days
Experimental: Animal experiments were conducted in full accordance with Swedish governmental statutory regulations on animal welfare under permission from local ethical committees. Animals were housed at a max of five per cage and provided with sterile water and food ad libitum. All mice were monitored and weighed daily. For the head and neck carcinoma model a 100-μl cell suspension containing 1×10^6 FaDu cells was injected subcutaneously into the right rear flank of the animals. After injection, tumor growth was measured daily with calipers and the tumor volume calculated by the formula […]. When tumors had grown to a size of approximately 200 mm^3 (Day 0) mice were randomized to receive either vehicle (n=10) or b-AP15 5 mg/kg^−1 by subcutaneous injection s.c. (n=15) daily. […] Nineteen days after malignant cell injection all of the mice were killed and histopathological manifestations of liver, ovary (target organs for this model of tumor) were evaluated and compared between groups. […]
SCID mice bearing FaDu human tumor xenografts were randomized at tumor take (200 mm^3) and treated by daily subcutaneous injection with either vehicle (n=10) or 5 mg kg^−1 b-AP15 (n=15) for 10 days. […] Mice were treated with vehicle (n=6) or 5 mg kg^−1 b-AP15 (n=6) 4-5 times weekly for 3 weeks and monitored for tumor onset (log-rank, P=0.0136, hazard ratio=7.9). […]

UCHL1 = target: T1, UCHL1 (Homo sapiens, UniProt P09936); test: HA-UbVS competitive labelling, non-proteasomal DUB; assay type: binding
T1 sequence (P09936 1-223): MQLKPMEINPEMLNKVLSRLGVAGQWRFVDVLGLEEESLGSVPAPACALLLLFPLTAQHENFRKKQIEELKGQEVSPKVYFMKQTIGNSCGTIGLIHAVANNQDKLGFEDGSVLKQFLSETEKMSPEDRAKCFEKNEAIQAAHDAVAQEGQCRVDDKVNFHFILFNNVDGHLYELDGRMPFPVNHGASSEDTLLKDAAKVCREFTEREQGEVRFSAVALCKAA
Excerpt: The deubiquitinating activity of the proteasome is attributed to the action of three DUBs, UCHL5, USP14 and POH1, all localized within the 19S RP 26-28. Both UCHL5 and USP14 are sensitive to N-ethylmaleimide (NEM), a general inhibitor of cysteine proteases, whereas POH1 is insensitive to inhibition by NEM but sensitive to metal chelators such as N,N,N,N-tetrakis-(2-pyridylmethyl)ethylenediamine (TPEN) (29). […] To identify specifically which DUBs were inhibited by b-AP15 treatment, competitive labelling experiments were performed using hemagglutinin tagged ubiquitin vinylsulphonone (HA-UbVS), an active site directed probe that irreversibly reacts with DUBs of the cysteine class (26).
For labelling of DUBs in cell lysates sub confluent cells were harvested by trypsinization, washed three times with PBS, and centrifuged at 1500 RPM for 5 min. Cell pellets were lysed with buffer (50 mM HEPES pH 7.4, 250 mM sucrose, 10 mM MgCl2, 2 mM ATP, 1 mM DTT) on ice for 15 min. Debris was removed by centrifugation and 25 μg of protein was labelled with 1 μM HA-UbVS for 30 min at 37° C. Samples were resolved by SDS-PAGE and analyzed by immunoblotting with indicated antibodies.

## C=CC(=O)N1C/C(=C\c2ccc([N+](=O)[O-])cc2)C(=O)/C(=C/c2ccc([N+](=O)[O-])cc2)C1 [b-AP15]
C1498 AML cells
  AML infiltration in liver and ovary: few infiltrated blasts and normal morphology
UCHL1
  activity of non-proteasomal DUB UCHL1: without affecting the activity
